Assay: in vitro
Conditions: human, hela cells, % viability

Compared with `CC(C)C(NS(=O)(=O)c1ccc(I)cc1)C(=O)O` (stereo not drawn) [CBK268703], `O=C(O)C(Cc1ccccc1)NS(=O)(=O)c1ccc(I)cc1` (stereo not drawn) [CBK268807] is higher in viability at 28.5 h, 10 µM: 106% for the first, 110% for the second.

Going from `COC(=O)CC1C(=O)NCCN1C(=S)NC(=O)c1ccc(-c2ccccc2)cc1` (stereo not drawn) [CBK268711] to `O=C(Cc1ccccc1)Nc1ccc(NC(=O)c2ccc(-c3ccccc3)cc2)cc1` [CBK268821], the viability at 28.5 h, 10 µM falls from 105% to 87.2%.

Going from `O=C(c1nc(SCc2ccccc2)ncc1Cl)N1CCN(c2cccc(Cl)c2)CC1` [CBK268712] to `O=C(Nc1nc2ccc(Cl)cc2s1)c1nc(SCc2ccccc2)ncc1Cl` [CBK268825], the viability at 28.5 h, 10 µM falls from 113% to 98.2%.

Going from `O=C1CC(N2CCN(c3ccc(S(=O)(=O)N4CCOCC4)cc3)CC2)C(=O)N1Cc1ccccc1` (stereo not drawn) [CBK268713] to `COc1ccc(N2C(=O)CC(N3CCN(c4ccc(S(=O)(=O)N5CCCC5)cc4)CC3)C2=O)cc1` (stereo not drawn) [CBK268851], the viability at 28.5 h, 10 µM falls from 107% to 85.1%.

First: COC(=O)c1ccc(N2C(=O)CC(N3CCC(n4c(=O)[nH]c5ccccc54)CC3)C2=O)cc1 (stereo not drawn) [CBK268714]
Second: CCOC(=O)c1ccc(N2C(=O)CC(N3CCCc4ccccc43)C2=O)cc1 (stereo not drawn) [CBK268720]
The viability at 28.5 h, 10 µM of the first is lower: 94.6% for the first, 109% for the second.

Going from `O=C(CCS(=O)(=O)c1nc(-c2ccccc2)cc(C(F)(F)F)n1)Nc1ccc(Cl)cc1Cl` [CBK268717] to `O=C(CN(c1ccccc1)S(=O)(=O)c1ccc(F)cc1)Nc1ccc(Cl)c(Cl)c1` [CBK268740], the viability at 28.5 h, 10 µM rises from 84.9% to 86.6%.

First: CCOC(=O)c1ccc(N2C(=O)CC(N3CCN(c4ccc(S(C)(=O)=O)cc4)CC3)C2=O)cc1 (stereo not drawn) [CBK268721]
Second: Cc1ccc(OCC(=O)Nc2ccccc2N2CCN(S(C)(=O)=O)CC2)cc1 [CBK268722]
The viability at 28.5 h, 10 µM of the first is higher: 103% for the first, 84% for the second.

Going from `C=CCn1c(SCC(=O)Nc2ccnc3ccccc23)nnc1-c1cccnc1` [CBK268723] to `CCn1c(SCC(=O)Nc2ccc([N+](=O)[O-])cc2O)nnc1-c1ccccc1` [CBK268730], the viability at 28.5 h, 10 µM falls from 88.6% to 87.2%.

First: Cc1ccc(C(C)C)c(OCC(=O)Nc2cc(-c3nc4ccccc4[nH]3)ccc2C)c1 [CBK268724]
Second: Cc1ccc(-n2c(SCC(=O)Nc3ccc(C)c([N+](=O)[O-])c3)nnc2-c2ccccc2O)c(C)c1 [CBK268769]
The viability at 28.5 h, 10 µM of the first is lower: 80.7% for the first, 96.6% for the second.

Going from `COc1ccc(N2CCN(CCNC(=O)Nc3ccc(Cl)cc3)CC2)cc1` [CBK268725] to `CSc1ncc(Cl)c(C(=O)Nc2ccc(S(=O)(=O)N3CCC(Cc4ccccc4)CC3)cc2)n1` [CBK268870], the viability at 28.5 h, 10 µM rises from 94.9% to 96.3%.

First: O=C(NC(=S)Nc1ccc2c(c1)Cc1ccccc1-2)c1cc([N+](=O)[O-])ccc1N1CCOCC1 [CBK268726]
Second: O=C(NCC(O)c1ccc([N+](=O)[O-])cc1)c1cccc(S(=O)(=O)N2CCCC2)c1 (stereo not drawn) [CBK268847]
The viability at 28.5 h, 10 µM of the first is lower: 104% for the first, 119% for the second.

First: CCOc1ccccc1-c1nnc(SCC(=O)NC2CCCCC2)o1 [CBK268728]
Second: Cn1c(Cc2csc(N)n2)nnc1SCC(=O)NC1CCCCC1 [CBK268787]
The viability at 28.5 h, 10 µM of the first is higher: 106% for the first, 84.3% for the second.

Compared with `COC(=O)c1ccccc1OC(=O)COc1ccc(Cl)cc1Br` [CBK268733], `COc1ccc2cc(Br)ccc2c1CC(=O)Nc1ccccc1[N+](=O)[O-]` [CBK268823] is higher in viability at 28.5 h, 10 µM: 83.7% for the first, 95.8% for the second.

Compared with `O=C(O)CCSc1nnc(-c2cccnc2)n1-c1ccccc1` [CBK268734], `Cc1ccccc1OCc1nnc(SCC(N)=O)n1-c1ccccc1` [CBK268808] is lower in viability at 28.5 h, 10 µM: 102% for the first, 101% for the second.

Compared with `Cc1cc(-c2nnc(SCCC(=O)Nc3ccccc3)o2)no1` [CBK268737], `Cc1cc(-c2nnc(SCC(=O)N3CCCc4ccccc43)o2)no1` [CBK268828] is lower in viability at 28.5 h, 10 µM: 104% for the first, 88% for the second.

Going from `COc1cc(/C=C(/C#N)c2ccc(C(=O)O)cc2)c([N+](=O)[O-])cc1OCc1ccccc1` [CBK268738] to `O=C(Cc1coc2ccc3ccccc3c12)NNC(=O)c1ccccc1[N+](=O)[O-]` [CBK268763], the viability at 28.5 h, 10 µM falls from 92% to 90.6%.

Compared with `CCOC(=O)N1CCN(CC(=O)N2c3ccccc3CCc3ccccc32)CC1` [CBK268744G], `O=C(CN1CCN(c2ccccn2)CC1)N1c2ccccc2CCc2ccccc21` [CBK268868G] is lower in viability at 28.5 h, 10 µM: 111% for the first, 98.4% for the second.

Going from `Cc1cc2nc(/C(C#N)=C/c3ccncc3)[nH]c2cc1C` [CBK268745] to `Cc1ccc(-c2nc3ncccc3o2)cc1NC(=O)c1cccnc1` [CBK268774], the viability at 28.5 h, 10 µM rises from 87.7% to 100%.

Compared with `CCOC(=O)C1=C(CSc2nccn2C)NC(=O)NC1c1ccc2c(c1)OCO2` (stereo not drawn) [CBK268746], `COC(=O)C1=C(Cn2ccc(C(F)(F)F)n2)NC(=O)NC1c1cc(C)ccc1C` (stereo not drawn) [CBK268792] is higher in viability at 28.5 h, 10 µM: 85.5% for the first, 105% for the second.

Compared with `Cc1cc([N+](=O)[O-])nn1CCCC(=O)Nc1cccc(O)c1` [CBK268747], `COc1ccc(C)cc1S(=O)(=O)N(C)CC(=O)Nc1cccc(C(C)=O)c1` [CBK268753] is higher in viability at 28.5 h, 10 µM: 87.1% for the first, 102% for the second.

First: O=S(=O)(NCc1ccco1)N1CCOCC1 [CBK268749]
Second: CSc1ncc(Cl)c(C(=O)Nc2ccc(S(=O)(=O)N3CCOCC3)cc2)n1 [CBK268775]
The viability at 28.5 h, 10 µM of the first is lower: 90.2% for the first, 106% for the second.

Compared with `CC(=O)Nc1ccc(OC(=O)CSc2nc(C)cc(-c3ccccc3)n2)cc1` [CBK268754], `CC(Oc1ccccc1)C(=O)Nc1ccc(-c2csc(-c3ccccc3)n2)cc1` (stereo not drawn) [CBK268855] is higher in viability at 28.5 h, 10 µM: 94.7% for the first, 103% for the second.

First: CCOc1cc(/C=C(/C#N)C(N)=S)ccc1OCC(=O)N1CCCC1 [CBK268765]
Second: CCOC(=O)C1CCN(Cc2nc(-c3ccc(OC)c(OC)c3)no2)CC1 [CBK268852]
The viability at 28.5 h, 10 µM of the first is lower: 91.3% for the first, 92.4% for the second.

First: COc1cc(S(=O)(=O)N2CCC(C(N)=O)CC2)ccc1Br [CBK268766]
Second: NC(=O)C1CCN(C(=O)CCCSc2nc(-c3ccco3)cc(C(F)(F)F)n2)CC1 [CBK268844]
The viability at 28.5 h, 10 µM of the first is lower: 82.6% for the first, 98.5% for the second.

Going from `Cc1cccc(NS(=O)(=O)c2cc(C(=O)NCc3ccccn3)ccc2C)c1` [CBK268767] to `Cc1ccc(S(=O)(=O)NNC(=O)COc2cccc3cccnc23)cc1` [CBK268788], the viability at 28.5 h, 10 µM rises from 70.7% to 90.1%.

Compared with `CC(C(=O)Nc1ccc(F)c(F)c1)n1cc([N+](=O)[O-])cn1` (stereo not drawn) [CBK268771], `O=C(CSc1nnc(-c2cccnc2)s1)Nc1ccc([N+](=O)[O-])cc1` [CBK268777] is higher in viability at 28.5 h, 10 µM: 92.9% for the first, 112% for the second.

First: O=C(Nc1ccc(NC(=O)C2CC=CCC2C(=O)O)cc1Cl)C1CCCCC1 (stereo not drawn) [CBK268772]
Second: CSc1ncc(Cl)c(C(=O)Nc2nc(-c3ccc(S(=O)(=O)N4CCCCCC4)cc3)cs2)n1 [CBK268785]
The viability at 28.5 h, 10 µM of the first is lower: 89.7% for the first, 96.5% for the second.

Going from `Cc1occc1-c1nnc(SCC(=O)c2ccc3c(c2)OCCO3)o1` [CBK268773] to `CCOc1cc(Br)ccc1S(=O)(=O)NCc1ccc2c(c1)OCO2` [CBK268813], the viability at 28.5 h, 10 µM rises from 83.5% to 108%.

Going from `C=CCNC(=S)Nc1sc2c(c1C(=O)OCC)CC(C)CC2` (stereo not drawn) [CBK268778] to `CCOC(=O)c1c(NC(=O)CSc2nnnn2C)sc(C)c1C` [CBK268798], the viability at 28.5 h, 10 µM rises from 89.8% to 103%.

Going from `CCCOc1ccc(S(=O)(=O)NCc2ccncc2)c2ccccc12` [CBK268780] to `CCOc1ccc(C)cc1S(=O)(=O)NCCc1c(C)[nH]c2c(Cl)cccc12` [CBK268859], the viability at 28.5 h, 10 µM rises from 83.3% to 86.8%.

Going from `CCOc1cc(Cl)c(S(=O)(=O)NCCCN2CCOCC2)cc1Cl` [CBK268781] to `O=C(NCCN1CCOCC1)c1ccc2nccnc2c1` [CBK268806], the viability at 28.5 h, 10 µM rises from 87.9% to 108%.

First: N=c1n(CCCOc2ccc(Br)cc2)c2ccccc2n1CC(N)=O [CBK268786C]
Second: COc1ccccc1OCCn1c(=N)n(CC(N)=O)c2ccccc21 [CBK268822C]
The viability at 28.5 h, 10 µM of the first is lower: 86.9% for the first, 88.6% for the second.

Compared with `c1ccc2[nH]c(NCCN3CCOCC3)nc2c1` [CBK268791], `CC1CCc2c(sc3ncnc(NCCc4nc5ccccc5[nH]4)c23)C1` (stereo not drawn) [CBK268809] is lower in viability at 28.5 h, 10 µM: 96.7% for the first, 91.6% for the second.

First: Cc1ccc(N(C(C)C(=O)Nc2ccccc2C(F)(F)F)S(C)(=O)=O)cc1 (stereo not drawn) [CBK268796]
Second: Cc1ccc(-c2cn(S(=O)(=O)c3cccc4nsnc34)nc2N)cc1 [CBK268871]
The viability at 28.5 h, 10 µM of the first is lower: 84.5% for the first, 113% for the second.

Compared with `COc1cc(Cl)cc(C2NC(=S)NC(c3ccccc3)=C2C(C)=O)c1OCC(=O)O` (stereo not drawn) [CBK268801], `Cc1nnc(SCC(=O)Nn2c(-c3ccccc3)nc3ccccc3c2=O)[nH]1` [CBK268841] is lower in viability at 28.5 h, 10 µM: 98.3% for the first, 86.8% for the second.

First: CS(=O)(=O)Nc1cccc(C2=NN(C(=O)CCC(=O)O)C(c3cccc(F)c3)C2)c1 (stereo not drawn) [CBK268804]
Second: COc1ccc(F)cc1S(=O)(=O)Nc1cccc(C)n1 [CBK268842]
The viability at 28.5 h, 10 µM of the first is higher: 85% for the first, 84.9% for the second.

Compared with `Cc1cccc(NS(=O)(=O)c2ccc(I)cc2)n1` [CBK268818], `Cc1c(Cl)cccc1NC(=S)/N=C(\N)Nc1nc(C)c2ccccc2n1` [CBK268866] is lower in viability at 28.5 h, 10 µM: 87% for the first, 86.9% for the second.

Compared with `Cn1c2ccccc2c2nnc(SCCCC(=O)c3ccc(F)cc3)nc21` [CBK268830], `c1ccc2nc3c(nc2c1)sc1nc2ccccc2n13` [CBK268872] is higher in viability at 28.5 h, 10 µM: 92.8% for the first, 104% for the second.

Compared with `CCc1ccc(NC(=N)Nc2nc(CSc3ncccn3)cc(=O)[nH]2)cc1` [CBK268836], `Cc1nnc(SCc2cc(=O)[nH]c(N3CCN(Cc4ccccc4)CC3)n2)s1` [CBK268837] is higher in viability at 28.5 h, 10 µM: 88.1% for the first, 104% for the second.

Compared with `Cc1noc(/C=C\c2cc(C)n(-c3ccc(C(=O)O)cc3)c2C)c1[N+](=O)[O-]` [CBK268862], `CCc1nnc(Sc2ccc(C=O)cc2[N+](=O)[O-])[nH]1` [CBK268876] is lower in viability at 28.5 h, 10 µM: 98.8% for the first, 95.4% for the second.

Same assay, conditions: human, hela cells, % viability, bulk resorufin, single well

Compared with `Cc1cccc(N2C(=O)NC(=O)C(CCc3ccncc3)(CCc3ccncc3)C2=O)c1C` [CBK268705], `Cc1ccc(Cl)cc1N1C(=O)NC(=O)C(CCc2ccccn2)(CCc2ccccn2)C1=O` [CBK268838] is higher in viability at 28.5 h, 10 µM: 93.9% for the first, 98.6% for the second.

Going from `C=CCN1C(=O)NC(=O)C(CCc2ccccn2)(CCc2ccccn2)C1=O` [CBK268761] to `O=C1NC(=O)C(CCc2ccccn2)(CCc2ccccn2)C(=O)N1c1ccc(F)cc1` [CBK268816], the viability at 28.5 h, 10 µM falls from 104% to 93%.

Source: publication PMC12040169 (PLOS Biology, 2025)
